Read-outs that look alike come from different tables or passages of the source.
Key:
[1] = test system: T24-BAG4 human bladder carcinoma cells expressing an activated H-ras gene; assay: Cell Mat assay: inhibition of tumor cell growth; format: cell-based; details: for IC50: tIC50
Method: (§1) Normal human HEPM fibroblasts were planted in 3.5 cm dishes at a density of 5×10^4 cells/dish in 2 ml growth medium, and incubated for 3-5 d to achieve confluence. Medium was aspirated from each dish and the indicator tumor cells, T24-BAG4 human bladder carcinoma cells expressing an activated H-ras gene, were planted on top of the fibroblast monolayer at a density of 2×10^3cells/dish in 2 ml growth medium, and allowed to attach overnight. Compound-induced colony inhibition was assayed by addition of serial dilutions of compound directly to the growth medium 24 h after tumor cell planting, and incubating cells for an additional 14 d to allow colony formation. Assays were terminated by rinsing monolayers twice with phosphate-buffered saline (PBS), fixing the monolayers with a 1% glutaraldehyde solution in PBS, then visualizing tumor cells by staining with X-Gal (Price, J., et al., Lineage analysis in the vertebrate nervous system by retrovirus-mediated gene transfer, Proc. Natl. Acad. Sci.84, 156-160(1987)). […] Both IC50 values were obtained by determining the density of tumor cells and mat cells by visual inspection and enumeration of cells per colony and the number of colonies under the microscope. The therapeutic index of the compound was quantitatively expressed as the ratio of mIC50/tIC50, with values greater than one indicative of tumor target specificity.

[2] = target: T1, farnesyl protein transferase (FPT) (Rattus norvegicus, UniProt Q02293+Q04631); assay: In vitro enzyme assay: inhibition of farnesyl protein transferase; format: biochemical
T1 construct: were partially purified from rat brain by ammonium sulfate fractionation followed by Q-Sepharose; from tissue; host or cells: rat brain
Method: 1. In vitro enzyme assays: Inhibition of farnesyl protein transferase and geranylgeranyl protein transferase.
Human farnesyl protein transferase was also expressed in E. coli, using cDNA clones encoding both the α and β subunits. […] Two forms of val^12-Ha-Ras protein were prepared as substrates for these enzymes, differing in their carboxy terminal sequence. One form terminated in cysteine-valine-leucine-serine (Ras-CVLS) the other in cystein-valine-leucine-leucine (Ras-CVLL). Ras-CVLS is a substrate for the farnesyl protein transferase while Ras-CVLL is a substrate for geranylgeranyl protein transferase I. The cDNAs encoding these proteins were constructed so that the proteins contain an amino-terminal extension of 6 histidine residues. Both proteins were expressed in Escherichia coli and purified using metal chelate affinity chromatography. The radiolabelled isoprenyl pyrophosphate substrates, [^3H]farnesyl pyrophosphate and [^3H]geranylgeranyl pyrophosphate, were purchased from DuPont/New England Nuclear.
The reaction was allowed to proceed for 30 minutes at room temperature and then stopped with 0.5 ml of 4% sodium dodecyl sulfate (SDS) followed by 0.5 ml of cold 30% trichloracetic acid (TCA). Samples were allowed to sit on ice for 45 minutes and precipitated Ras protein was then collected on GF/C filter paper mats using a Brandel cell harvester. […] Percent inhibition was calculated relative to the DMSO vehicle control.

[3] = test system: Normal human HEPM fibroblasts; assay: Cell Mat assay: inhibition of normal cell growth; format: cell-based; details: mIC50, normal cell monolayer
Method: as §1

[4] = Ras-CVLS farnesylation, partially purified rat brain FPT, read-out: FPT IC50

IC50 [2, 4] [µM]	Compound	also measured
37.6	CCOC(=O)N1CCC(=C2c3ccc(Cl)cc3CCc3ccc[n+]([O-])c32)CC1 [Compound 515.00, Ethyl 4-(8-chloro-5,6-dihydro-11H-benzo[5,6]cyclohepta[1,2-B]pyridin-11-ylidene)-1-piperidinecarboxylate N-oxide]	selective antiproliferative activity against Ras-transformed cells versus normal cells [1]: little; IC50 [1]: 75 µM; IC50 [3]: > 100 µM
10.4	CCOC(=O)N1CCC(F)(C2c3ccc(Cl)cc3CCc3cccnc32)CC1 (stereo not drawn) [Compound 520.00]	–
7	CCOC(=O)N1CCC(=C2c3ccc(Br)cc3CCc3cccnc32)CC1 [Compound 540.00]	–
7.1	CCOC(=O)N1CCC(=C2c3ccc(Cl)cc3CCc3cc(C)cnc32)CC1 [Compound 545.00]	–
37.8	CCOC(=O)N1CCC(=C2c3cc(Cl)c(Cl)cc3CCc3cccnc32)CC1 [Compound 555.00]	–
17.6	COC(=O)N1CCC(=C2c3ccc(Cl)cc3CCc3cccnc32)CC1 [Compound 560.00]	–
8	O=C(OCc1ccccc1)N1CCC(=C2c3ccc(Cl)cc3CCc3cccnc32)CC1 [Compound 570.00]	–
80	CCCCCCOC(=O)N1CCC(=C2c3ccc(Cl)cc3CCc3cccnc32)CC1 [Compound 590.00]	–
10.5	CCOC(=O)N1CCC(=C2c3ccc(Cl)cc3CCc3c(Cl)ccnc32)CC1 [Compound 596.00]	–
34.1	CCOC(=O)N1CCN([C@@H]2c3ccc(Cl)cc3CCc3cccnc32)CC1 [Compound 602.00, (+) Ethyl 4-(8-chloro-6,11-dihydro-11H-benzo[5,6]-cyclohepta[1,2-b]pyridin-11(R)-yl)-1-piperazine Carboxylate]	–
10.5	CCOC(=O)N1CCN([C@H]2c3ccc(Cl)cc3CCc3cccnc32)CC1 [Compound 604.00, (−) Ethyl 4-(8-chloro-6,11-dihydro-11H-benzo[5,6]-cyclohepta[1,2-b]pyridin-11(S)-yl)-1-piperazinecarboxylate]	–
> 20	O=C(OCc1ccccc1)N1CCN(C2c3ccc(Cl)cc3CCc3cccnc32)CC1 (stereo not drawn) [Compound 614.00, Phenylmethyl 4-(8-chloro-6,11-dihydro-5H-benzo[5,6]-cyclohepta[1,2-b]pyridin-11-yl)-1-piperazinecarboxylate]	selective antiproliferative activity against Ras-transformed cells versus normal cells [1]: little; IC50 ([1]; Homo sapiens): 50 µM; IC50 ([3]; Homo sapiens, Fibroblast): > 50 µM
10.5	CCOC(=O)N1CCC(C2c3cc(CC)c(Cl)cc3C=Cc3cccnc32)CC1 (stereo not drawn) [Compound 622.00, 8-chloro-11-(1-ethoxycarbonyl-4-piperidinyl)-9-ethyl-11H-benzo[5,6]cyclohepta[1,2-b]pyridine]	–
7.4	CCOC(=O)N1CCC(C2c3ccc(Cl)cc3C=Cc3c(Cl)ccnc32)CC1 (stereo not drawn) [Compound 636.00]	–
2.17	CCOC(=O)N1CCC(=C2c3ccc(Cl)cc3CCc3cc(Br)cnc32)CC1 [Compound 642.00]	selective antiproliferative activity against Ras-transformed cells versus normal cells [1]: little; IC50 ([1]; Homo sapiens): 50 µM; IC50 ([3]; Homo sapiens, Fibroblast): > 50 µM
–	CCOC(=O)N1CCC(=C2c3ccc(Cl)cc3CCc3c(O)ccnc32)CC1 [Compound 646.00, Ethyl 4-[4-hydroxy-8-chloro-5,6-dihydro-11H-benzo[5,6]cyclohepta[1,2-b]pyridin-11-ylidene]-1-piperidine Carboxylate]	inhibition at 15 µM ([2]; @ 15 μM): 30%
11.5	CCOC(=O)N1CCC(=C2c3ccc(Cl)cc3CCc3cc(OC)cnc32)CC1 [Compound 658.00, 8-chloro-3-methoxy-11-(1-ethoxycarbonyl-4-piperidylidene)-6,11-dihydro-5H-benzo[5,6]-cyclohepta[1,2-b]pyridine]	–
–	CCOC(=O)N1CCC(=C2c3ccc(Cl)cc3CCc3c2ncc(Br)c3O)CC1 [Compound 660.00, Ethyl 4-[3-bromo-4-hydroxy-8-chloro-5,6-dihydro-11H-benzo[5,6]cyclohepta[1,2-b]pyridin-11-ylidene]-1-piperidine Carboxylate]	inhibition at 13 µM ([2]; @ 13 μM): 22%
10.8	CCOC(=O)N1CCC(=C2c3ccc(Cl)cc3C=Cc3cccnc32)CC1 [Compound 666.00]	–
–	O=C(Oc1ccc[n+]([O-])c1)N1CCN(C2c3ccc(Cl)cc3CCc3cc(Br)cnc32)CC1 (stereo not drawn) [Compound 801.00]	IC50 [2]: 0.28 µM
> 1.3	CN1CCC(OC(=O)N2CCN(C3c4ccc(Cl)cc4CCc4cccnc43)CC2)CC1 (stereo not drawn) [Compound 802.00]	FPT inhibition, second line of the FPT IC50 (μM) column ([2]; (1.3), the values are: FPT inhibition at 1.3 µM): 35%
2.1	CN1CCCC(OC(=O)N2CCN(C3c4ccc(Cl)cc4CCc4cccnc43)CC2)C1 (stereo not drawn) [Compound 804.00]	–
0.3	CN1CCCC(OC(=O)N2CCN(C3c4ccc(Cl)cc4CCc4cc(Br)cnc43)CC2)C1 (stereo not drawn) [Compound 805.00]	–
–	O=C(Oc1ccccc1)N1CCN(C2c3ccc(Cl)cc3C=Cc3cccnc32)CC1 (stereo not drawn) [Example 32]	IC50 ([1]; Homo sapiens): 25 µM; IC50 [2]: 0.88 µM; IC50 ([3]; Homo sapiens, Fibroblast): 25 µM

Compound	IC50 [2, 4] [µM]	also measured
O=C(Oc1cccnc1)N1CCC(=C2c3ccc(Cl)cc3CCc3c(Cl)ccnc32)CC1 [Compound 644.00, 3-pyridyl 4-(4,8-dichloro-5,6-dihydro-11H-benzo[5,6]cyclohepta[1,2-b]pyridin-11-ylidene)-1-piperidine Carboxylate]	1.03	–
O=C(Oc1cccnc1)N1CCC(=C2c3ccc(Cl)cc3CCc3c(O)ccnc32)CC1 [Compound 648.00, 3-pyridyl 4-[4-hydroxy-8-chloro-5,6-dihydro-11H-benzo[5,6]cyclohepta[1,2-b]pyridin-11-ylidene]-1-piperidine Carboxylate]	6.7	–
O=C(Oc1cccnc1)N1CCC(=C2c3ccc(Cl)cc3CCc3c(On4nnc5ccccc54)ccnc32)CC1 [Compound 656.00, 3-pyridyl 4-[4-[(1H-benzotriazol-1-yl)oxy]-8-chloro-5,6-dihydro-11H-benzo[5,6]cyclohepta[1,2-b]pyridin-11-ylidene[-1-piperidine Carboxylate]	0.71	–
O=C(Oc1cccnc1)N1CCC(=C2c3ccc(Cl)cc3CCc3c2ncc(Br)c3O)CC1 [Compound 662.00, 3-pyridyl 4-[3-bromo-4-hydroxy-8-chloro-5,6-dihydro-11H-benzo[5,6]cyclohepta[1,2-b]pyridin-11-ylidene]-1-piperidine Carboxylate]	3.8	–
O=C(Oc1cccnc1)N1CCC(=C2c3ccc(Cl)cc3C=Cc3cccnc32)CC1 [Compound 664.00]	1.46	–
O=C(Oc1ccc[n+]([O-])c1)N1CCN(C2c3ccc(Cl)cc3CCc3cccnc32)CC1 (stereo not drawn) [Compound 800.00]	3.7	–

— US6492381B1, “Tricyclic carbamate compounds useful for inhibition of G-protein function and for treatment of proliferative diseases” (Schering Corp., priority 1993, dated 2002)
